Experimental data reported in patent publication US20250041461A1, “[177LU] LUTETIUM-PSMA I&T COMPOSITION AND DOSIMETRY, KIT, METHOD OF MAKING, AND METHOD OF USING THEREOF” (Curium US LLC, priority 2023, published 2025).
Several values for one entry are separate records, joined by “and”; a condition that tells them apart may be missing. Equal values may be shown once.

Experiments:
[1] = Plasma PK modelling (gamma counting, bi-exponential fit), cycles 1 and 3; type: in vivo, human
Experimental: PK plasma samples were collected at pre-Infusion, 1 h, 4 h, 24 h, 48 h, and 168 h, and counted for radioactivity. Blood samples were first centrifuged to extract plasma, and then the radioactivity in plasma was counted in a gamma counter.
Whole blood samples were collected as detailed in the protocol Schedule of Events i.e. pre-injection, and then at 1 h, 4 h, 24 h, 48 h, and 168 h post-injection. The samples were first centrifuged to separate plasma, and the radioactivity in the plasma was then measured using a gamma counter. Plasma concentrations were subsequently fitted with a bi-exponential function to derive outcome parameters such as the half-life and clearance rate of the radiopharmaceutical in the plasma.
Gamma-counted plasma samples were quality controlled using the same ^177Lu reference standard by measuring 0.5 ml of the 100 mL in the saline bag. For each patient, triplicates were made and measured right before all plasma samples were counted. A long-lived isotope was also counted to ensure that the protocol was properly followed by each site. Similarly to the imaging standard, when the gamma counter efficiency factor differed by more than 10% compared to that at site set-up, an investigation was launched to determine the cause of this variation, and if it reflected a difference in data acquisition.
Plasma data was fitted with a bi-exponential curve.
Blood samples were obtained for 15 out of 16 patients at cycle 3. Patients 12-004 had blood taken only at the 24 h timepoint and, therefore, was not included in the plasma PK analysis. Consistent with Cycle 1, the time-course of plasma concentrations was similar among the patients. The ranges of PK parameters obtained at cycle 3 were similar to those from Cycle 1 data (Table 6). Cycle 3 PK plasma modeling results (n=15)

[2] = Radiochemical purity of formulated ^177Lu-PSMA I&T solution by HPLC (stability over time); type: physicochemical
Experimental: pH was estimated by pH paper. Radioactivity was measured in a dose calibrator. Radiochemical purity was determined by liquid chromatography with radioactivity detection and thin layer chromatography.
Radiochemical impurities are quantified by chromatographical methods (HPLC and TLC). Radiochemical purity determined by HPLC must not be less than 95.0%
The radiochemical purity and chemical properties (pH, impurities, visual properties) of [^177Lu]Lu-PSMA I&T in the formulation composition 3 were tested on the seven batches over a time span of 70 to 72 hours from the end-of-synthesis time. Stability samples of typical therapeutic dose radioactivity and volume were stored in different conditions covering typical storage, shipment and usage of the product, including temperatures ranging from +5° C. to +40° C.
Radiochemical purity of each solution was followed by HPLC up to 71-93 hours post-radiolabeling. All solutions were stored at 22.5° C.
Sample Analysis: The pH, radioactivity concentration (RAC), PSMA I&T content, and radiochemical purity (RCP) of the formulations were determined using a variety of analytical techniques described in the following sub-sections. A detailed record of the steps performed for each analysis can be found in Attachment 1-4.
Both the determination of the assay for PSMA I&T and related substances and the RCP of the formulations were determined via HPLC analysis. The system suitability of the instrument was established by triplicate injections of a 15 ppm PSMA I&T standard prior to sample analysis and a single 15 ppm check standard every 10 sample injections. A five-point standard curve of PSMA I&T concentrations between 0.5 and 25 ppm was used to determine the PSMA I&T concentration in the formulations.

[3] = Eclipse sub-study, cycle 3 dosimetry (16 patients); type: in vivo, human; conditions: cycle 3, 16 patients
Experimental: To evaluate potential changes in the tracer's kinetics and uptake after multiple treatment cycles, 16 of the 27 patients included in the dosimetry sub study, were imaged at both cycle 1 and cycle 3. Among these, at cycle 3, three patients were imaged at all 4 timepoints and the other 13 were imaged at one or two timepoints only (24 h, 48 h or both 24 h and 48 h) (Table 7 in Appendix 1). For these 13 patients, the TACs obtained at cycle 1 were used for each source organ and scaled to the normalized activity value(s) measured at Cycle 3. For patients imaged at two timepoints, the TACs were preferably scaled using the average scaling factor between the two timepoints.
A subgroup of 16 out of the 27 patients underwent and additional dosimetry assessment at Cycle 3. Among these, three patients had dosimetry performed based on images taken at 4 timepoints, while the remaining patients had dosimetry performed at 1 or 2 imaging timepoints only, as described in Section 4.4.1.
The organ absorbed radiation doses were compared to the mean organ absorbed radiation doses from Cycle 1 for the same subset of patients, as shown in Table 5. The dosimetry estimations obtained at cycle 3 align closely with those from cycle 1. At this timepoint, the kidneys had the highest dose (0.49±0.19 Gy/GBq) but, for most organs, the estimated absorbed dose values were similar to or lower compared to cycle 1. […]

[4] = Cycle 1, patient 42-030 excluded

O=C([O-])CC[C@H](NC(=O)N[C@@H](CCCCNC(=O)CCCCCCC(=O)NCCCC[C@@H](NC(=O)[C@@H](Cc1ccccc1)NC(=O)[C@@H](Cc1ccc(O)c(I)c1)NC(=O)CC[C@H](C(=O)[O-])N1CCN(CC(=O)[O-])CCN(CC(=O)[O-])CCN(CC(=O)[O-])CC1)C(=O)[O-])C(=O)[O-])C(=O)[O-].[177Lu+3].[H+].[H+].[H+].[H+].[H+] [^177Lu-PSMA I&T, (3S,7S,26R,29R,32R,37R)-29-benzyl-32-(4-hydroxy-3-iodobenzyl)-5,13,20,28,31,34-hexaoxo-37-(4,7,10-tris(carboxymethyl)-1,4,7,10-tetraazacyclododecan-1-yl)-4,6,12,21,27,30,33-heptaazaheptatriacontane-1,3,7,26,37-pentacarboxylic acid; lutetium-177 (III)]
Peak Concentration Value ([1]; Cycle 1, individual patients): 0.05 fIA/L (4×) and 0.04 fIA/L and 0.03 fIA/L
Time of Peak Concentration ([1]; Cycle 1, individual patients, time of first post-administration sample): 56.00 min and 47.00 min and 53.00 min and 60.00 min (6×) and 51.00 min (2×) and 58.00 min and 61.00 min (2×) and 50.00 min and 63.00 min and 57.00 min and 55.00 min and 52.00 min (2×) and 68.00 min and 71.00 min and 65.00 min and 33.00 min and 40.00 min and 69.00 min
AUC Total, Mean [1, 4]: 22.77 fIA/L × min
AUC Total, max [1, 4]: 37.86 fIA/L × min
AUC Total, median [1, 4]: 20.84 fIA/L × min
AUC Total, min [1, 4]: 3.07 fIA/L × min
Peak Concentration Value, Mean [1, 4]: 0.04 fIA/L
Peak Concentration Value, max [1, 4]: 0.07 fIA/L
Peak Concentration Value, median [1, 4]: 0.04 fIA/L
Peak Concentration Value, min [1, 4]: 0.01 fIA/L
Time of Peak Concentration [1, 4]: 33.00 min
Time of Peak Concentration, median [1, 4]: 59.00 min
Vd, Mean [1, 4]: 234.64 L
Vd, max [1, 4]: 1365.03 L
Vd, median [1, 4]: 157.12 L
Vd, min [1, 4]: 54.60 L
Time of Peak Concentration ([1]; cycle 3, max (n=15)): 68.00 min
Time of Peak Concentration ([1]; cycle 3, median (n=15)): 60.00 min
Time of Peak Concentration ([1]; cycle 3, min (n=15)): 55.00 min
radiochemical purity by HPLC ([2]; 10 ml high RAC formulation, 42.5 mg/ml ascorbic acid, 0 hours post EOS): at least 99%
radiochemical purity by HPLC ([2]; 10 ml high RAC formulation, 42.5 mg/ml ascorbic acid, 46 hours post EOS): at least 93.3%
radiochemical purity by HPLC ([2]; 20 ml low RAC formulation, 31 mg/ml ascorbic acid, 0 hours post EOS): at least 99.1%
radiochemical purity ([2]; decreased strength (0.5 GBq/mL), 72 hours post-end-of-synthesis): above 95%
radiochemical stability among the formulations of Example 3 ([2]; low RAC solution of pH 4.5 and ascorbic acid concentration of 31 mg/ml): highest radiochemical stability
absorbed dose, kidneys [3]: 0.49±0.19 Gy/GBq
